Data: ChEMBL document CHEMBL2034935, “Discovery of a Novel Series of CRTH2 (DP2) Receptor Antagonists Devoid of Carboxylic Acids” (ACS Med Chem Lett, 2011)

Assays:
[1] = biological target: T1, Prostaglandin D2 receptor 2 (Homo sapiens, UniProt Q9Y5Y4); assay: Displacement of [3HPGD2 from human CRTH2 receptor expressed in CHO cell membrane after 90 mins by scintillation proximity assay; assay type: cell membranes
T1 sequence (Q9Y5Y4 whole entry): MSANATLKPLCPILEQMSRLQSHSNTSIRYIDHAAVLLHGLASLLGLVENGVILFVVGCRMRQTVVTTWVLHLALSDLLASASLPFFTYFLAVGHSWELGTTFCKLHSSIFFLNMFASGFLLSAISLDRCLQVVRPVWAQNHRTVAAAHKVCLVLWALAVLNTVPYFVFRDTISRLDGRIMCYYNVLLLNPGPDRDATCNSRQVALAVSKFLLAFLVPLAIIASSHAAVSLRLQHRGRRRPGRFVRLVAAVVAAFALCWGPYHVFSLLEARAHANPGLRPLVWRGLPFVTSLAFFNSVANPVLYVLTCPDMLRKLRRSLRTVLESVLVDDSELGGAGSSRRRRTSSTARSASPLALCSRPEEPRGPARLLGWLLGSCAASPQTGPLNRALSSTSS

Cytochrome P450 1A2 = biological target: T2, Cytochrome P450 1A2 (Homo sapiens, UniProt P05177); assay: Inhibition of human recombinant CYP1A2 incubated for 15 mins prior to substrate addition measured after 30 mins by spectrophotometry; assay type: ADME
T2 sequence (P05177 whole entry): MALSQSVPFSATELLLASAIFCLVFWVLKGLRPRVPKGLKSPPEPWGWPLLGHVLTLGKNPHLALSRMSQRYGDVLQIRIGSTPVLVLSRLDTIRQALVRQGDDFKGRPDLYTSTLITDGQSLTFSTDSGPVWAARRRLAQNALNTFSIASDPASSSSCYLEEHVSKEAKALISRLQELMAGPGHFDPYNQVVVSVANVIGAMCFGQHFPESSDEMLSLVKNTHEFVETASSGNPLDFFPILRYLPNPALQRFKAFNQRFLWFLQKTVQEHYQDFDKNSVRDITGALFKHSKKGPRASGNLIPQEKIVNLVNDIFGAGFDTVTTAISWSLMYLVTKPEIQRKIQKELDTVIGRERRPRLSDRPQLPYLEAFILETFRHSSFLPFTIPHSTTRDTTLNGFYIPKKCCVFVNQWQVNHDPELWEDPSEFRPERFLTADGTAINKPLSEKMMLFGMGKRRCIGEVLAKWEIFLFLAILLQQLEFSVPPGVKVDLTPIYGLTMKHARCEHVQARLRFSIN

Cytochrome P450 2B6 = biological target: T3, Cytochrome P450 2B6 (Homo sapiens, UniProt P20813); assay: Inhibition of human recombinant CYP2B6 incubated for 15 mins prior to substrate addition measured after 30 mins by spectrophotometry; assay type: ADME
T3 sequence (P20813 whole entry): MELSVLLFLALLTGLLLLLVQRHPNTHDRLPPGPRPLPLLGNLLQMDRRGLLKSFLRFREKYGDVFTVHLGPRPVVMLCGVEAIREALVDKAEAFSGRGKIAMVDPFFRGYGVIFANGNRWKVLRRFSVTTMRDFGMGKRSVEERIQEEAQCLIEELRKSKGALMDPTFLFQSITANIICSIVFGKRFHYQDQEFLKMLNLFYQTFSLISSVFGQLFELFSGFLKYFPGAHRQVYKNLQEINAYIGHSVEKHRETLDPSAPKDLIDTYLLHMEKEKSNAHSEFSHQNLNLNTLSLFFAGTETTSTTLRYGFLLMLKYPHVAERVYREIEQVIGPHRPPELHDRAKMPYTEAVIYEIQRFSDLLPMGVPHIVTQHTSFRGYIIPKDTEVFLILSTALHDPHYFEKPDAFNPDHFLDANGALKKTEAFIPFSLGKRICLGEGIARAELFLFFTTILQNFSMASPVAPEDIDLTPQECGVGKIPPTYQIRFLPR

Cytochrome P450 3A4 = Cytochrome P450 3A4 (Homo sapiens, UniProt P08684); assay: Inhibition of human recombinant CYP3A4 incubated for 15 mins prior to substrate addition measured after 30 mins by spectrophotometry; assay type: ADME
Chain of Cytochrome P450 3A4 (P08684 whole entry): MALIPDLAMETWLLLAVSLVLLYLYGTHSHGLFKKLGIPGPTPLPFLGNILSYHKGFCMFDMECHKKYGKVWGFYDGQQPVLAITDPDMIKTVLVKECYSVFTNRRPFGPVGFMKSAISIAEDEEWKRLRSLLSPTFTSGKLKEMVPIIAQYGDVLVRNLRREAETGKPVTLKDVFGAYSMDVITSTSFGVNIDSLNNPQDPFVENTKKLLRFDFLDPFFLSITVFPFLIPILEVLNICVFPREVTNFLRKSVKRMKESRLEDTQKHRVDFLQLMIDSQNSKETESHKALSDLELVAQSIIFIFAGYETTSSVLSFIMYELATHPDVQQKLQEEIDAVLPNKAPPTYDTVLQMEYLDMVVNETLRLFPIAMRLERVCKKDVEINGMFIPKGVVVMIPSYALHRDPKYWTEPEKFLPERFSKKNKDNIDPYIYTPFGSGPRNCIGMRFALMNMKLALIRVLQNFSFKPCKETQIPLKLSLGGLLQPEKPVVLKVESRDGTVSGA

Cytochrome P450 2D6 = Cytochrome P450 2D6 (Homo sapiens, UniProt P10635); assay: Inhibition of human recombinant CYP2D6 incubated for 15 mins prior to substrate addition measured after 30 mins by spectrophotometry; assay type: ADME
Chain of Cytochrome P450 2D6 (P10635 whole entry): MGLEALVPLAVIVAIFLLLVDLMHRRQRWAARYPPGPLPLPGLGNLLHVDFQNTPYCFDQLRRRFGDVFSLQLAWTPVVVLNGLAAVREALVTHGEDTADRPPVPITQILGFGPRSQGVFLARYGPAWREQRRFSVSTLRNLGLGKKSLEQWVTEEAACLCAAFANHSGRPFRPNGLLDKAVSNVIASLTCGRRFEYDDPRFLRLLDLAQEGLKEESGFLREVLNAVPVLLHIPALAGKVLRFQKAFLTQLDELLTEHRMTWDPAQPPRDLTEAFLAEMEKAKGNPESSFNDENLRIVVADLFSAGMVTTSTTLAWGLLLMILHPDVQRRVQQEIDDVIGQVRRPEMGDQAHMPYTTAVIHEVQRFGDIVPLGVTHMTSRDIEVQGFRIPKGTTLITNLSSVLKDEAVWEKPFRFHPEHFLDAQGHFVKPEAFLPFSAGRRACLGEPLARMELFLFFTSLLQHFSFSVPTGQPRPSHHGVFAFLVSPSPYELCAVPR

[2] = biological target: T4, Prostaglandin D2 receptor 2 (Homo sapiens) (UniProt Q9Y5Y4); assay: Agonist activity at human CRTH2 receptor expressed in CHO cell membrane assessed as induction of [35S]GTPgammaS binding at 20 uM after 30 mins by microbeta scintillation counting relative to PGD2; assay type: functional, cell membranes
T4 sequence (whole entry): T1 sequence (Q9Y5Y4 whole entry)

[3] = biological target: T1, Prostaglandin D2 receptor 2; assay: Antagonist activity at human CRTH2 receptor expressed in CHO cell membrane assessed as inhibition of PGD2-induced [35S]GTPgammaS binding after 30 mins by microbeta scintillation counting; assay type: functional, cell membranes
[4] = biological target: T4, Prostaglandin D2 receptor 2 (Homo sapiens); assay: Antagonist activity at human CRTH2 receptor expressed in CHO cell membrane assessed as inhibition of PGD2-induced [35S]GTPgammaS binding at 2 uM after 30 mins by microbeta scintillation counting relative to control; assay type: functional, cell membranes
[5] = Intrinsic clearance in human liver microsomes assessed per mg protein at 1 uM up to 45 mins by LC/MS analysis; assay type: ADME, Microsome; conditions: read-out: CLH
[6] = Intrinsic clearance in rat liver microsomes assessed per mg protein at 1 uM up to 45 mins by LC/MS analysis; assay type: ADME, Microsome; conditions: read-out: CLH
Cytochrome P450 2C8 = biological target: T5, Cytochrome P450 2C8 (Homo sapiens, UniProt P10632); assay: Inhibition of human recombinant CYP2C8 incubated for 15 mins prior to substrate addition measured after 30 mins by spectrophotometry; assay type: ADME
T5 sequence (P10632 whole entry): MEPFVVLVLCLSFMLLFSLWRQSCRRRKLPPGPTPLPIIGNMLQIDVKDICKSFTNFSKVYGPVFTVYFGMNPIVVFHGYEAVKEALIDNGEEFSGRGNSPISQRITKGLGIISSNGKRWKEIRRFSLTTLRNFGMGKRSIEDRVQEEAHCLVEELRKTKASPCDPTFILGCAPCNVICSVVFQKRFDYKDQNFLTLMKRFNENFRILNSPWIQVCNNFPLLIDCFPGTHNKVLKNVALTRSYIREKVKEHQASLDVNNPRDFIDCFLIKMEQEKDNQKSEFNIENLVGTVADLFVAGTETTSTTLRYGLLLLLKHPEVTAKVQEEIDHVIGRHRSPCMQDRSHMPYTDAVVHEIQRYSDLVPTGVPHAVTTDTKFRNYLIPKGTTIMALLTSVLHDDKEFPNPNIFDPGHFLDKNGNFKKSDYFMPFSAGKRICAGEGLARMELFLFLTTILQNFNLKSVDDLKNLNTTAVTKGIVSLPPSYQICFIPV

Cytochrome P450 2C9 = Cytochrome P450 2C9 (Homo sapiens, UniProt P11712); assay: Inhibition of human recombinant CYP2C9 incubated for 15 mins prior to substrate addition measured after 30 mins by spectrophotometry; assay type: ADME
Chain of Cytochrome P450 2C9 (P11712 whole entry): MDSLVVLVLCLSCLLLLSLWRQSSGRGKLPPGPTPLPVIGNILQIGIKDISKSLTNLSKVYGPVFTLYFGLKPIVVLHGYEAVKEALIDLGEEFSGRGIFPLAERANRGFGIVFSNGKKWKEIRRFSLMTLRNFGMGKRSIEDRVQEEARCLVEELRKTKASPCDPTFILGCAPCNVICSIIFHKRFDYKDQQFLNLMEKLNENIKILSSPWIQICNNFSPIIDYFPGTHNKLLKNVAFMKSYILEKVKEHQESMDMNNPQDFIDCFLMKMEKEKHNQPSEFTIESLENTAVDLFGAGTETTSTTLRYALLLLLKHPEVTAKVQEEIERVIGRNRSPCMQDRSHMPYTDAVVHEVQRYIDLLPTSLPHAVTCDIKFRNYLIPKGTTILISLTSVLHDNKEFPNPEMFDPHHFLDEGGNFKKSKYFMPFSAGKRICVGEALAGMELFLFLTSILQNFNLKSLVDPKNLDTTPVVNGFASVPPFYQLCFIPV

Cytochrome P450 2C19 = Cytochrome P450 2C19 (Homo sapiens, UniProt P33261); assay: Inhibition of human recombinant CYP2C19 incubated for 15 mins prior to substrate addition measured after 30 mins by spectrophotometry; assay type: ADME
Chain of Cytochrome P450 2C19 (P33261 whole entry): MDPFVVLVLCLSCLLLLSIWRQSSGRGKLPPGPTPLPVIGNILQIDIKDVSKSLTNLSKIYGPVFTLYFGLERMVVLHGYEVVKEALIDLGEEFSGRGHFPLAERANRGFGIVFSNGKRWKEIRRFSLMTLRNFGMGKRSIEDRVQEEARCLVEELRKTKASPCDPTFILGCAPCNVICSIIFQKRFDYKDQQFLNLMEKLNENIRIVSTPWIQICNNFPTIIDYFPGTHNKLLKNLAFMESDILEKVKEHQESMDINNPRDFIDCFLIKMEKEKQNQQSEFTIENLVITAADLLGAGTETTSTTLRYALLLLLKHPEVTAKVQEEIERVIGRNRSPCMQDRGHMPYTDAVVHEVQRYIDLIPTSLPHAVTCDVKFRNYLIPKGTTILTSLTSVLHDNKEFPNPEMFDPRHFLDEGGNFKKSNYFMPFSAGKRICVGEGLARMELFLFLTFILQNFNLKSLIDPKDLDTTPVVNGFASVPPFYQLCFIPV

[7] = Apparent permeability across human Caco2 cells at 1 uM after 2 hrs by LC/MS analysis; assay type: ADME, cell-based; conditions: Caco-2
[8] = Half life in C57BL/6 mouse at 1 mg/kg, iv; assay type: ADME, organism-based; design: dose 1 mg/kg, route intravenous; conditions: in vivo
[9] = Volume of distribution at steady state in C57BL/6 mouse at 1 mg/kg, iv and 5 mg/kg, po; assay type: ADME, organism-based; conditions: in vivo, read-out: Vdss

Row | SMILES | Ki [1] | IC50 (Cytochrome P450 1A2) | IC50 (Cytochrome P450 2B6) | IC50 (Cytochrome P450 3A4) | IC50 (Cytochrome P450 2D6) | Emax [2] | IC50 [3] | inhibition [4] | microsomal CLint at 1 µM [5] | microsomal CLint at 1 µM [6] | IC50 (Cytochrome P450 2C8) | IC50 (Cytochrome P450 2C9) | IC50 (Cytochrome P450 2C19) | Papp at 2 h, 1 µM [7] | half-life [8] | Vd [9]
1 | CCCCC(=O)N(Cc1ccc(OC(F)(F)F)cc1)c1cc(Cl)cc(-c2nnn[nH]2)c1 | 0.019 µM | > 10 µM | > 10 µM | > 10 µM | > 10 µM | -10% | 0.02 µM | 112% | – | – | – | – | – | – | – | –
2 | CCC(=O)N(Cc1ccc(C(F)(F)F)cc1)c1cc(F)cc(-c2nnn[nH]2)c1 | 0.0057 µM | > 10 µM | > 10 µM | > 10 µM | > 10 µM | -8% | 0.037 µM | 105% | < 10 µL/min/mg | < 10 µL/min/mg | 0.086 µM | 0.28 µM | 0.038 µM | 3 ×10⁻⁶ cm/s | 1.4 h | 0.9 L/kg
3 | CCCCC(=O)N(Cc1ccc(C(F)(F)F)cc1)c1cc(F)cc(-c2nnn[nH]2)c1 | 0.0024 µM | > 10 µM | > 10 µM | > 10 µM | > 10 µM | – | – | – | – | – | – | – | – | – | – | –
4 | CCC(=O)N(Cc1ccc(C(F)(F)F)cc1)c1cccc(-c2nnn[nH]2)c1 | 0.11 µM | > 10 µM | > 10 µM | > 10 µM | > 10 µM | – | – | – | – | – | – | – | – | – | – | –

More lines, in order of falling Ki [1], values ahead:

Row | Ki [1] | IC50 (Cytochrome P450 1A2) | IC50 (Cytochrome P450 2B6) | IC50 (Cytochrome P450 3A4) | IC50 (Cytochrome P450 2D6) | Emax [2] | IC50 [3] | inhibition [4] | microsomal CLint at 1 µM [5] | microsomal CLint at 1 µM [6] | IC50 (Cytochrome P450 2C8) | IC50 (Cytochrome P450 2C9) | IC50 (Cytochrome P450 2C19) | Papp at 2 h, 1 µM [7] | half-life [8] | Vd [9] | SMILES
5 | 0.22 µM | > 10 µM | > 10 µM | > 10 µM | > 10 µM | – | – | – | – | – | – | – | – | – | – | – | CCC(=O)N(Cc1cccc(C(F)(F)F)c1)c1cccc(-c2nnn[nH]2)c1
6 | 0.0077 µM | > 10 µM | > 10 µM | > 10 µM | > 10 µM | – | – | – | – | – | – | – | – | – | – | – | CCCCC(=O)N(Cc1ccc(OC(F)(F)F)cc1)c1cc(F)cc(-c2nnn[nH]2)c1
7 | 0.0069 µM | > 10 µM | > 10 µM | > 10 µM | > 10 µM | – | – | – | < 10 µL/min/mg | 12 µL/min/mg | 0.043 µM | 0.2 µM | 0.051 µM | – | – | – | CCC(=O)N(Cc1ccc(OC(F)(F)F)cc1)c1cc(F)cc(-c2nnn[nH]2)c1
8 | 0.0045 µM | > 10 µM | > 10 µM | > 10 µM | > 10 µM | – | – | – | – | – | – | – | – | – | – | – | CCCCC(=O)N(Cc1cccc(OC(F)(F)F)c1)c1cc(F)cc(-c2nnn[nH]2)c1
